Source: patent publication US20080262009A1, “CRYSTALLINE POLYMORPHS OF N-(3-(DIMETHYLAMINO)PROPYL)-4-(4-(3-FLUORO-4-METHOXYPHENYL) PYRIMIDIN-2-YLAMINO) BENZENESULFONAMIDE AS ACETATE SALTS” (Wyeth, priority 2007, published 2008)

Columns and labels:
Water solubility = assay: Water solubility
Source text: HCl, phosphoric acid, tartaric acid, acetic acid, D-glucoronic acid and succinic acid were used to prepare pharmaceutically acceptable salts of compound 3.

[1] = Solubility in organic solvents / group 3 solvents; assay type: physicochemical

Structure (SMILES) | solubility (Water solubility; water) [µg/mL] | Solubility in water (Water solubility; by a thermogravimeteric method) | water solubility (in words) (Water solubility; free base form, general statement) | solubility in THF, DMSO and DMF ([1]; THF, DMSO and DMF) | solubility in group 3 solvents, including water ([1]; group 3 solvents, including water)
CC(=O)O.COc1ccc(-c2ccnc(Nc3ccc(S(=O)(=O)NCCCN(C)C)cc3)n2)cc1F [acetate salt of compound 3] | 3500 |  |  |  | 
COc1ccc(-c2ccnc(Nc3ccc(S(=O)(=O)NCCCN(C)C)cc3)n2)cc1F [compound 3] |  | not detectable | little to no | high | low
